Test results published in ChEMBL document CHEMBL5518223, “Structure-Guided Elaboration of a Fragment-Like Hit into an Orally Efficacious Leukotriene A4 Hydrolase Inhibitor” (J Med Chem, 2024).
Converted amounts (≈) assume the structure as drawn.

Experiments:
[1] = target: T1, Voltage-gated inwardly rectifying potassium channel KCNH2 (Homo sapiens, UniProt Q12809); assay: Inhibition of hERG by microfluidic patch clamp assay; type: toxicity
[2] = target: T1, Voltage-gated inwardly rectifying potassium channel KCNH2; assay: Inhibition of hERG by manual patch clamp assay; type: toxicity
in vivo = settings: C57/BL6, mouse, blood, po, 10 mg/kg
Description: Drug concentration in C57/BL6 mouse blood at 10 mg/kg, po bid measured after 14 hrs

in vitro = settings: dog, MDCK
Description: Apparent permeability coefficient of the compound across apical to basolateral side in dog MDCKII-LE cells

[3] = target: T2, Leukotriene A-4 hydrolase (Homo sapiens, UniProt P09960); assay: Inhibition of LTA4H (unknown origin) using Arg-AMC as substrate preincubated with compound for 15 mins followed by substrate addition and measured after every 10 mins for 30 mins by fluorescence based analysis
T2 sequence (P09960 whole entry): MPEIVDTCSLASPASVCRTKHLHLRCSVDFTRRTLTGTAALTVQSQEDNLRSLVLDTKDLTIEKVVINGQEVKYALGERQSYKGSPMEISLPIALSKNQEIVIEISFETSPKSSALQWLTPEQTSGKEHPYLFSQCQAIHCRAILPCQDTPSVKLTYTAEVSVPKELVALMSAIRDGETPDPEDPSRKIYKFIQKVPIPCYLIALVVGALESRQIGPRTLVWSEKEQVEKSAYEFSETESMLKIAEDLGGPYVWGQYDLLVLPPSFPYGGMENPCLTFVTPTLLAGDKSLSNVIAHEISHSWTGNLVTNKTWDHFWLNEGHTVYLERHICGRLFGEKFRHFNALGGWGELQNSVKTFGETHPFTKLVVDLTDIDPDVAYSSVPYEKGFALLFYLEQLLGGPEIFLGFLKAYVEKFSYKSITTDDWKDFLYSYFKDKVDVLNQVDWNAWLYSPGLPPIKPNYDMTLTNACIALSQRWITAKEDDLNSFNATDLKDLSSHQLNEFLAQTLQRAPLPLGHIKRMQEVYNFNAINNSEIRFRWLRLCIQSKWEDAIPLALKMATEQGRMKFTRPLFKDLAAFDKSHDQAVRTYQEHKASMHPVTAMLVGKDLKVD

physchem [4] = settings: buffer, pH 6.8
Description: Solubility of the compound at pH 6.8 using amorphous form of sample

Mus musculus = species: Mus musculus; assay: animal or person; settings: C57/BL6, po, 14 h, read-out: INH
Description: Inhibition of calcium ionophore A23187-stimulated LTB4 release in C57/BL6 mouse model at 10 mg/kg, po bid measured after 14 hrs

physchem [5] = settings: octanol/water, pH 7.4

T1 sequence (Q12809 whole entry): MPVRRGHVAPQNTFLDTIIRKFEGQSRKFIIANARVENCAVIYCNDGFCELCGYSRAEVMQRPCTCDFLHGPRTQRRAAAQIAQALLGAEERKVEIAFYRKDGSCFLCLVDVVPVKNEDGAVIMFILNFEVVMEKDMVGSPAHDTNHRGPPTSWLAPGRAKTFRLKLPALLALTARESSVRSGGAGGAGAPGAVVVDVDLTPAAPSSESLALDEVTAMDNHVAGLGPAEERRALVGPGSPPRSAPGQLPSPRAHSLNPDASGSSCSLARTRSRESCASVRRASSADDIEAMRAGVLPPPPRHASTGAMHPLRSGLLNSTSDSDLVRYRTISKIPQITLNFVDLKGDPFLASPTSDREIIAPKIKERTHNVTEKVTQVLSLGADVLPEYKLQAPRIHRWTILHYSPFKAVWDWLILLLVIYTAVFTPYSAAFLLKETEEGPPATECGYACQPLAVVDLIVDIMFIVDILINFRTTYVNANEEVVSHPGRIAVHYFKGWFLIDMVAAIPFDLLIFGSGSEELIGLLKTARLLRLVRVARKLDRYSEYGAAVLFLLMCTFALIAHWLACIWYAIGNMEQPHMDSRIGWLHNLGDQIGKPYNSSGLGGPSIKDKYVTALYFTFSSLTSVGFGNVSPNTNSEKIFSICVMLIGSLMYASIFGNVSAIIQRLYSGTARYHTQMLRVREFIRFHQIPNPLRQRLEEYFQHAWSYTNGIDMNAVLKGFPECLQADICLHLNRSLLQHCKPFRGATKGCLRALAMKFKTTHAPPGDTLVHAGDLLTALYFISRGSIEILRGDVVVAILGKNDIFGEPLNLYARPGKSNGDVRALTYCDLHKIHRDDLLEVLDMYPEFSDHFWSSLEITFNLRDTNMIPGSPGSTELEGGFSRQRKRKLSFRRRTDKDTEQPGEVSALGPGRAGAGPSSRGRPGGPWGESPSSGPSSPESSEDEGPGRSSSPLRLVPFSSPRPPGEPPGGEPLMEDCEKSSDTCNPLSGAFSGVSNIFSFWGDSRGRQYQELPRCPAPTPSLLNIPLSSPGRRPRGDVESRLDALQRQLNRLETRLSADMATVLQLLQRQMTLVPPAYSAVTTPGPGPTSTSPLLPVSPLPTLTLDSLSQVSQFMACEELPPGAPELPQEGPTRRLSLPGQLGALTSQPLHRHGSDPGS

| concentration at 14 h (in vivo) [nM] | SMILES | IC50 [1] [µM] | IC50 [2] [µM] | other results |
| --- | --- | --- | --- | --- |
| – | c1cc(-c2ccc(Oc3ccc(CN4CCCC4)nc3)nc2)[nH]n1 | > 30 | 19 | – |
| – | c1cc(-c2ccc(Oc3ccc(CN4CCCCC4)nc3)nc2)[nH]n1 | > 30 | 27 | – |
| – | CN(C)Cc1ccc(Oc2ccc(-c3ccn[nH]3)cn2)cn1 | > 30 | – | – |
| 218 | c1ccc(Oc2ccc(-c3c[nH]cn3)cc2)cc1 | – | – | Papp A→B (in vitro): 56 ×10⁻⁶ cm/s; IC50 [3]: 0.088 µM; solubility (physchem [4]): 121 µM (≈ 28.6 µg/mL); inhibition in vivo at 10 mg/kg (Mus musculus): 93%; logD (physchem [5]): 3.7 |
| 184 | N[C@@H](CC(=O)O)Cn1nnc(-c2ccc(Oc3ncc(Cl)cc3F)cc2)n1 | – | – | – |
